Reference: patent US20240345376A1, “SYSTEM AND METHOD FOR NANOSCALE AXIAL LOCALIZATION AND SUPER […] IMAGING WITH HEIGHT-[…]” (The George Washington University, priority 2021, published 2024)

System: SKBR3 cells
Assay: Plasma membrane tension and bending modulus mapping from MAxSIM height fluctuation data in live cells
Assay type: cell-based
Conditions: 5 μM for 30 minutes, FIG. 12C
Text: Analysis of single-pixel-level plasma membrane biomechanics in live cells using the time-dependent membrane heights acquired by MAxSIM imaging: Utilizing MAxSIM technology, we mapped the membrane tension and bending modulus of plasma membranes in MCF7 cells (low HER2 expression) and SKBR3 (HER2 overexpression enabling constitutive HER2 activity). […] This approach, based on the Helfrich-Canham model, has been commonly employed in the literature, allowing the membrane tension (o) and bending modulus (K) to be linked to height fluctuations by the following equation.
where ? |h(q)|^2 ? represents the power spectral density of the membrane height fluctuations, q is the wave vector, kbT is the thermal energy, σ is the membrane tension, and κ is the bending modulus. From fitting the raw experimental data to this function, membrane tension (σ) and bending modulus (κ) are extracted (FIGS. 12A, 12B, 12C). To identify mechanical compartments, we will utilize and compare various cluster analysis methods we have tested, including K-means analysis, which groups similar data points into K clusters based on their proximity to cluster centers, and DBscan, a density-based clustering algorithm that groups data points based on their proximity.
1. Super-resolution imaging and single-molecule-tracking tools and mechanical property measurements: a. […]

For `C/C1=C/C(=O)O[C@@H]2C[C@@H](CC[C@H](C)/C=C\C=C\CC1)O[C@@](O)([C@@H]1CSC(=O)N1)C2` [latrunculin A], the “mechanical compartmentalization (membrane tension and bending modulus) on the basal plasma membrane” value was “significant reduction”.
